From patent US20190194209A1, “PYRAZOLE CARBOXAMIDE COMPOUNDS AND METHODS OF USE” (Genentech, Inc., priority 2014, published 2019) come the findings set out here.

Where two headings read alike, the source gives them in different places.

In experiment [1] the target is T1, full length human wildtype Btk (Homo sapiens, UniProt Q06187).
T1 construct: V5 (C); 6xHis (C); made in house; host or cells: Sf9 cells (baculovirus, pFastBac)
Put plainly: Biochemical Btk Kinase Assay (Example 901). The settings on record: read-out: BTK LC3K (Ki). The procedure: Formula I compounds were tested by a standard biochemical Btk, Kinase Assay (Example 901). A generalized procedure for a standard biochemical Btk, Kinase Assay that can be used to test Formula I compounds is as follows. A master mix minus Btk enzyme is prepared containing 1× Cell Signaling kinase buffer (25 mM Tris-HCl, pH 7.5, 5 mM beta-glycerophosphate, 2 mM dithiothreitol, 0.1 mM Na3VO4, 10 mM MgCl2), 0.5 μM Promega PTK Biotinylated peptide substrate 2, and 0.01% BSA. A master mix plus Btk enzyme is prepared containing 1× Cell Signaling kinase buffer, 0.5 μM (micromolar) PTK Biotinylated peptide substrate 2, 0.01% BSA, and 100 ng/well (0.06 mU/well) Btk enzyme. Btk enzyme is prepared as follows: full length human wildtype Btk (accession number NM-000061) with a C-terminal V5 and 6×His tag was subcloned into pFastBac® vector (Invitrogen/Life Technologies) for making baculovirus carrying this epitope-tagged Btk. Generation of baculovirus is done based on Invitrogen's instructions detailed in its published protocol “Bac-to-Bac Baculovirus Expression Systems” (Invitrogen/Life Technologies, Cat. Nos. 10359-016 and 10608-016). Passage 3 virus is used to infect Sf9 cells to overexpress the recombinant Btk protein. The Btk protein is then purified to homogeneity using Ni-NTA column. The purity of the final protein preparation is greater than 95% based on the sensitive Sypro-Ruby staining. A solution of 200 μM ATP is prepared in water and adjusted to pH 7.4 with 1N NaOH. A quantity of 1.25 μL (microliter) of compounds in 5% DMSO is transferred to a 96-well 2 area Costar polystyrene plate. Compounds are tested singly and with an 11-point dose-responsive curve (starting concentration is 10 μM; 1:2 dilution). A quantity of 18.75 μL of master mix minus enzyme (as a negative control) and master mix plus enzyme is transferred to appropriate wells in 96-well 2 area costar polystyrene plate. 5 μL of 200 μM ATP is added to that mixture in the 96-well 2 area Costar polystyrene plate for final ATP concentration of 40 μM. The reaction is allowed to incubate for 1 hour at room temperature. The reaction is stopped with Perkin Elmer 1× detection buffer containing 30 mM EDTA, 20 nM SA-APC, and 1 nM PT66 Ab. The plate is read using time-resolved fluorescence with a Perkin Elmer Envision using excitation filter 330 nm, emission filter 665 nm, and 2nd emission filter 615 nm. IC50 values are subsequently calculated. Alternatively, the Lanthascreen assay can be used to evaluate Btk activity through quantification of its phosphorylated peptide product. The FRET (Fluorescence Resonance Energy Transfer) that occurs between the fluorescein on the peptide product and the terbium on the detection antibody decreases with the addition of inhibitors of Btk that reduce the phosphorylation of the peptide. In a final reaction volume of 25 μL (microliters), Btk (h) (0.1 ng/25 μl reaction) is incubated with 50 mM Hepes pH 7.5, 10 mM MgCl2, 2 mM MnCl2, 2 mM DTT, 0.2 mM NaVO4, 0.01% BSA, and 0.4 uM fluorescein poly-GAT. The reaction is initiated by the addition of ATP to 25 μM (micromolar) the Km of ATP. After incubation for 60 minutes at room temperature, the reaction is stopped by the addition of a final concentration of 2 nM Tb-PY20 detection antibody in 60 mM EDTA for 30 minutes at room temperature. Detection is determined on a Perkin Elmer Envision with 340 nm excitation and emission at 495 nm and 520 nm. Exemplary Btk inhibition […] values are in Table 1.

Experiment [2] concerns CD69 production by B lymphocytes in human whole blood activated with goat F(ab')2 anti-human IgM. Put plainly: CD69 Whole Blood Assay (Example 907). The settings on record: Lymphocyte, read-out: CD69 Hu Blood FACS (IC70). The experiment is classed as cell-based. An excerpt: A CD69 Whole Blood Assay can be conducted on Formula I compounds to determine the ability of compounds to inhibit the production of CD69 by B lymphocytes in human whole blood activated by crosslinking surface IgM with goat F(ab′)2 anti-human IgM (Example 907). CD69 is a type II C-type lectin involved in lymphocyte migration and cytokine secretion. CD69 expression represents one of the earliest available indicators of leukocyte activation and its rapid induction occurs through transcriptional activation (Vazquez et al (2009) Jour. of Immunology Published Oct. 19, 2009, doi: 10.4049/jimmunol.0900839). Concentration-dependent inhibition of antigen receptor stimulation by selective Btk inhibitors induces cell surface expression of the lymphocyte activation marker CD69 (Honigberg et al (2010) Proc. Natl. Acad. Sci. 107(29):13075-13080). Thus, CD69 inhibition by selective Btk inhibitors may be correlated with therapeutic efficacy of certain B-cell disorders.
Human blood is obtained from healthy volunteers, with the following restrictions: 1 week drug-free, non-smokers. Blood (approximately 20 mls to test 8 compounds) is collected by venipuncture into Vacutainer® (Becton, Dickinson and Co.) tubes with sodium heparin.
Solutions of Formula I compounds at 10 mM in DMSO are diluted 1:10 in 100% DMSO, then are diluted by three-fold serial dilutions in 100% DMSO for a ten point dose-response curve. The compounds are further diluted 1:10 in PBS and then an aliquot of 5.5 μl of each compound is added in duplicate to a 2 ml 96-well plate; 5.5 μl of 10% DMSO in PBS is added as control and no-stimulus wells. Human whole blood—HWB (100 μl) is added to each well. After mixing the plates are incubated at 37° C., 5% CO2, 100% humidity for 30 minutes. Goat F(ab′)2 anti-human IgM (10 μl of a 500 μg/ml solution, 50 μg/ml final) is added to each well (except the no-stimulus wells) with mixing and the plates are incubated for an additional 20 hours. At the end of the 20 hour incubation, samples are incubated with fluorescent labeled antibodies for 30 minutes, at 37° C., 5% CO2, 100% humidity. Include induced control, unstained and single stains for compensation adjustments and initial voltage settings. Samples are then lysed with PharM Lyse™ (BD Biosciences Pharmingen) according to the manufacturer's instructions. Samples are then transferred to a 96 well plate suitable to be run on the BD Biosciences HTS 96 well system on the LSRII machine. Data acquired and Mean Fluorescence Intensity values were obtained using BD Biosciences DIVA Software. Results are initially analyzed by FACS analysis software (Flow Jo).

The mark [3] stands for this setting: human whole blood, anti-IgM stimulated, 20 hour incubation, CD20 positive cells, FACS.

T1 sequence (Q06187 whole entry): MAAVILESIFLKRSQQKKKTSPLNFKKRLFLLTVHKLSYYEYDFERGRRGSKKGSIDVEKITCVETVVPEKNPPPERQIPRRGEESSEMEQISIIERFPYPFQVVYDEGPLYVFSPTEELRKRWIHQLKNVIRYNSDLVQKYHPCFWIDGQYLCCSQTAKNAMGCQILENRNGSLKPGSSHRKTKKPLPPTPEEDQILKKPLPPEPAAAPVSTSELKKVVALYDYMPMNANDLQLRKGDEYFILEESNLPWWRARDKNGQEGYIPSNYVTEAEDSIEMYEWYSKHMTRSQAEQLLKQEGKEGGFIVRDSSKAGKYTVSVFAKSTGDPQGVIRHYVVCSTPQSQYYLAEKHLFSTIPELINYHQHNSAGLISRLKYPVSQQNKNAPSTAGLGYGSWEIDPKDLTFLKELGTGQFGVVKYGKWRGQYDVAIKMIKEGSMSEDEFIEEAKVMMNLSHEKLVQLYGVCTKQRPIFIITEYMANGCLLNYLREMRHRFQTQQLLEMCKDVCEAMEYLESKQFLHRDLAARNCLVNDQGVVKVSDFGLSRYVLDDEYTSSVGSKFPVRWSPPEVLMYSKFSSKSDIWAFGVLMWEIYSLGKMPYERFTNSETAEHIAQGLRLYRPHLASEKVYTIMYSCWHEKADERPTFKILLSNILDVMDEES

For the molecule `Cn1cc(-c2nn(-c3ccnc(-n4ncc5cc(C(C)(C)C)cc(F)c5c4=O)c3CO)cc2C(N)=O)cn1` [Example 115, 1-[2-(6-tert-butyl-8-fluoro-1-oxo-phthalazin-2-yl)-3-(hydroxymethyl)-4-pyridyl]-3-(1-methylpyrazol-4-yl)pyrazole-4-carboxamide], in experiment [1], the Ki was determined as 0.997 nM. The IC70 in experiment [2] (setting [3]) amounted to 268 nM.

Regarding `Cn1cc(Nc2nn(-c3ccnc(-n4ncc5cc(C(C)(C)C)cc(F)c5c4=O)c3CO)cc2C(N)=O)nn1` [Example 111, 1-[2-(6-tert-butyl-8-fluoro-1-oxo-phthalazin-2-yl)-3-(hydroxymethyl)-4-pyridyl]-3-[(1-methyltriazol-4-yl)amino]pyrazole-4-carboxamide], the Ki in experiment [1] worked out at 0.131 nM. Further, the IC70 in experiment [2] (setting [3]) is 77.3 nM.

On to `C[C@H]1CN(C2COC2)CCN1c1ccc(Nc2cn(-c3ccnc(N4CCn5c(cc6c5CC(C)(C)C6)C4=O)c3CO)nc2C(N)=O)nc1` [Example 126, 1-[2-(7,7-dimethyl-4-oxo-1,2,6,8-tetrahydrocyclopenta[3,4]pyrrolo[3,5-b]pyrazin-3-yl)-3-(hydroxymethyl)-4-pyridyl]-4-[[5-[(2S)-2-methyl-4-(oxetan-3-yl)piperazin-1-yl]-2-pyridyl]amino]pyrazole-3-carboxamide], for which, in experiment [1], the Ki worked out at 0.156 nM. In addition, the IC70 in experiment [2] (setting [3]) stood at 6.4 nM.

Consider `Cn1cc(Nc2nn(-c3cccc(N4CCn5c(cc6c5CC(C)(C)C6)C4=O)c3CO)cc2C(N)=O)nn1` [Example 105, 1-[3-(7,7-dimethyl-4-oxo-1,2,6,8-tetrahydrocyclopenta[3,4]pyrrole[3,5-b]pyrazin-3-yl)-2-(hydroxymethyl)phenyl]-3-[(1-methyltriazol-4-yl)amino]pyrazole-4-carboxamide], for which the Ki in experiment [1] was 0.326 nM. In addition, the IC70 in experiment [2] (setting [3]) stood at 32.3 nM.

Consider `CC1(C)Cc2cc3n(c2C1)CCN(c1nccc(-n2cc(C(N)=O)c(NC(=O)[C@@H]4C[C@@H]4F)n2)c1CO)C3=O` [Example 112, 1-[2-(7,7-dimethyl-4-oxo-1,2,6,8-tetrahydrocyclopenta[3,4]pyrrolo[3,5-b]pyrazin-3-yl)-3-(hydroxymethyl)-4-pyridyl]-3-[(2-fluorocyclopropanecarbonyl)amino]pyrazole-4-carboxamide], for which, in experiment [1], the Ki was 0.436 nM. In addition, in experiment [2] (setting [3]), the IC70 stood at 100 nM.

As for `CC1(C)Cc2cc3n(c2C1)CCN(c1nccc(-n2cc(C(N)=O)c(NC(=O)C4CC4)n2)c1CO)C3=O` [Example 107, 3-(cyclopropanecarbonylamino)-1-[2-(7,7-dimethyl-4-oxo-1,2,6,8-tetrahydrocyclopenta[3,4]pyrrolo[3,5-b]pyrazin-3-yl)-3-(hydroxymethyl)-4-pyridyl]pyrazole-4-carboxamide], the Ki in experiment [1] was 0.615 nM. In addition, the IC70 in experiment [2] (setting [3]) was found to be 52.1 nM.

As for `C[C@H]1CN(C2COC2)CCN1c1ccc(Nc2nn(-c3cc(F)cc(N4CCn5c(cc6c5CC(C)(C)C6)C4=O)c3CO)cc2C(N)=O)nc1` [Example 145, 1-[3-(7,7-dimethyl-4-oxo-1,2,6,8-tetrahydrocyclopenta[3,4]pyrrolo[3,5-b]pyrazin-3-yl)-5-fluoro-2-(hydroxymethyl)phenyl]-3-[[5-[(2S)-2-methyl-4-(oxetan-3-yl)piperazin-1-yl]-2-pyridyl]amino]pyrazole-4-carboxamide], in experiment [1], the Ki came to 0.103 nM. Besides, in experiment [2] (setting [3]), the IC70 turned out to be 30.4 nM.

Regarding `CC1(C)Cc2cc3n(c2C1)CCN(c1nccc(-n2nc(C(N)=O)c4cccnc42)c1CO)C3=O` [Example 110, 1-[2-(7,7-dimethyl-4-oxo-1,2,6,8-tetrahydrocyclopenta[3,4]pyrrolo[3,5-b]pyrazin-3-yl)-3-(hydroxymethyl)-4-pyridyl]pyrazolo[3,4-b]pyridine-3-carboxamide], in experiment [1], the Ki turned out to be 3.32 nM. Further, the IC70 in experiment [2] (setting [3]) turned out to be 5300 nM.

With `CC(C)(C)c1cc(F)c2c(=O)n(-c3nccc(-n4cc(C(N)=O)c(Nc5ccccn5)n4)c3CO)ncc2c1` [Example 106, 1-[2-(6-tert-butyl-8-fluoro-1-oxo-phthalazin-2-yl)-3-(hydroxymethyl)-4-pyridyl]-3-(2-pyridylamino)pyrazole-4-carboxamide], the Ki in experiment [1] came out at 0.34 nM. Also, in experiment [2] (Homo sapiens, 20 h), the IC70 was determined as 132 nM.

On to `CC(C)(C)c1cc(F)c2c(=O)n(-c3nccc(-n4cc(C(N)=O)c(Nc5ccc(N6CCNCC6)cn5)n4)c3CO)ncc2c1` [Example 118, 1-[2-(6-tert-butyl-8-fluoro-1-oxo-phthalazin-2-yl)-3-(hydroxymethyl)-4-pyridyl]-3-[(5-piperazin-1-yl-2-pyridyl)amino]pyrazole-4-carboxamide], for which the Ki in experiment [1] is 0.248 nM. Also, the IC70 in experiment [2] (setting [3]) came out at 574 nM.

Regarding `Cn1cc(Nc2nn(-c3ccnc(N4CCn5c(cc6c5CC(C)(C)C6)C4=O)c3CO)cc2C(N)=O)nn1` [Example 119, 1-[2-(7,7-dimethyl-4-oxo-1,2,6,8-tetrahydrocyclopenta[3,4]pyrrolo[3,5-b]-pyrazin-3-yl)-3-(hydroxymethyl)-4-pyridyl]-3-[(1-methyltriazol-4-yl)amino]pyrazole-4-carboxamide], in experiment [1], the Ki worked out at 0.317 nM. Moreover, the IC70 in experiment [2] (setting [3]) was 47.2 nM.

As for `C[C@H]1CN(C2COC2)CCN1c1ccc(Nc2nn(-c3ccnc(-n4ncc5cc(C(C)(C)C)cc(F)c5c4=O)c3CO)cc2C(N)=O)nc1` [Example 120, 1-[2-(6-tert-butyl-8-fluoro-1-oxo-phthalazin-2-yl)-3-(hydroxymethyl)-4-pyridyl]-3-[[5-[(2S)-2-methyl-4-(oxetan-3-yl)piperazin-1-yl]-2-pyridyl]amino]pyrazole-4-carboxamide], the Ki in experiment [1] was determined as 0.106 nM. The IC70 in experiment [2] (setting [3]) was determined as 98.6 nM.

By Ki is commonly meant a measure of affinity in units of concentration, obtained from inhibition or displacement. As a reminder, the IC70 is the concentration at which the effect reaches the 70% level.
